Measurements: US7897582B2, “Oligonucleotide compositions and methods for the modulation of the expression of B7 protein” (Isis Pharmaceuticals, Inc., priority 2003, dated 2011)
Strand notation (5' to 3'): a small letter for the sugar, then the base; units joined by * are phosphorothioate-linked, units joined directly phosphodiester-linked; [ ] holds rarer units or linkages, { } end groups; capitals alone tell only the bases. e = 2'-O-(2-methoxyethyl) (MOE); [5mC] = 5-methylcytosine; d = 2'-deoxy (DNA)

Key:
[1] = tested on: Human B7-1 mRNA; assay: Human B7-1 mRNA expression in COS-7 cells, screened as in Example 4; type: cell-based; conditions: human B7-1 mRNA; Table 7
[2] = tested on: hB7-2 mRNA; assay: Ribonuclease protection assay of hB7-2 mRNA in transfected COS-7 cells; type: cell-based, human; conditions: human B7-2 mRNA; Table 12
Description: For ribonuclease protection assays, cells were harvested 18 hours after completion of oligonucleotide treatment using a Totally RNA™ kit (Ambion, Austin, Tex.). The probes for the assay were generated from plasmids pcB7-2 (linearized by digestion with Bgl II) and pTRI-b-actin (Ambion Inc., Austin, Tex.). In vitro transcription of the linearized plasmid from the SP6 promoter was performed in the presence of α-^32P-UTP (800 Ci/mmole) yielding an antisense RNA complementary to the 3′ end of B7-2 (position 1044-1391). The probe was gel-purified after treatment with DNase I to remove DNA template. Ribonuclease protection assays were carried out using an RPA II™ kit (Ambion) according to the manufacturer's directions. Total RNA (5 μg) was hybridized overnight, at 42° C., with 10^5 cpm of the B7-2 probe or a control beta-actin probe. The hybridization reaction was then treated, at 37° C. for 30 minutes, with 0.4 units of RNase A and 2 units of RNase T1. Protected RNA was precipitated, resuspended in 10 μL of gel loading buffer and electrophoresed on a 6% acrylamide gel with 50% w/v urea at 20 W. The gel was then exposed and the lanes quantitated using a PhosphorImager (Molecular Dynamics, Sunnyvale, Calif.) essentially according to the manufacturer's instructions.
The oligonucleotides were screened as described in Example 4 except that the concentration of oligonucleotide was varied as shown in Table 13. Mismatch control oligonucleotides were included.

Substance	% mRNA EXPRESSION [2] [%]	other results
13805 (antisense C^{S}C^{S}T^{S}G^{S}C^{S}C^{S}T^{S}C^{S}C^{S}G^{S}T^{S}G^{S}T^{S}G^{S}T^{S}G^{S}G^{S}C^{S}C^{S}C; as printed in the source, key not given here) [compound 13805]	–	% mRNA EXPRESSION [1]: 46%; % mRNA INHIBITION [1]: 54%
22285 (e[5mC]*eA*eG*eA*eA*dG*d[5mC]*dA*dA*dG*dG*dT*dG*dG*dT*eA*eA*eG*eA*eA; antisense) [compound 22285]	74	% mRNA INHIBITION [2]: 26%
22286 (eG*e[5mC]*e[5mC]*eT*eG*dT*d[5mC]*d[5mC]*dA*d[5mC]*dT*dG*dT*dA*dG*e[5mC]*eT*e[5mC]*e[5mC]*eA; antisense) [compound 22286]	39	–
22288 (eT*e[5mC]*eA*eG*eA*dG*dG*dA*dG*d[5mC]*dA*dG*d[5mC]*dA*d[5mC]*e[5mC]*eA*eG*eA*eG; antisense) [compound 22288]	38	–
22289 (eT*eG*eG*e[5mC]*eA*dT*dG*dG*d[5mC]*dA*dG*dG*dT*d[5mC]*dT*eG*e[5mC]*eA*eG*eT; antisense) [compound 22289]	41	–
22290 (eA*eG*e[5mC]*eT*e[5mC]*dA*d[5mC]*dT*d[5mC]*dA*dG*dG*d[5mC]*dT*dT*eT*eG*eG*eT*eT; antisense) [compound 22290]	42	–
22291 (eT*eG*e[5mC]*e[5mC]*eT*dA*dA*dG*dT*dA*dT*dA*d[5mC]*d[5mC]*dT*e[5mC]*eA*eT*eT*e[5mC]; antisense) [compound 22291]	41	–
22292 (e[5mC]*eT*eG*eT*e[5mC]*dA*dA*dA*dT*dT*dT*d[5mC]*dT*d[5mC]*dT*eT*eT*eG*e[5mC]*e[5mC]; antisense) [compound 22292]	39	–
22293 (e[5mC]*eA*eT*eA*eT*dA*d[5mC]*dT*dT*dG*dG*dA*dA*dT*dG*eA*eA*e[5mC]*eA*e[5mC]; antisense) [compound 22293]	43	–
22295 (eT*eG*eA*eT*e[5mC]*dT*dG*dA*dA*dG*dA*dT*dT*dG*dT*eG*eA*eA*eG*eT; antisense) [compound 22295]	66	% mRNA INHIBITION [2]: 34%
22296 (eA*eA*eG*e[5mC]*e[5mC]*d[5mC]*dT*dT*dG*dT*d[5mC]*d[5mC]*dT*dT*dG*eA*eT*e[5mC]*eT*eG; antisense) [compound 22296]	42	–
22297 (eT*eG*eT*eG*eA*dT*dG*dG*dA*dT*dG*dA*dT*dA*d[5mC]*eA*eT*eT*eG*eA; antisense) [compound 22297]	54	% mRNA INHIBITION [2]: 46%
22298 (eT*e[5mC]*eA*eG*eG*dT*dT*dG*dA*d[5mC]*dT*dG*dA*dA*dG*eT*eT*eA*eG*e[5mC]; antisense) [compound 22298]	53	% mRNA INHIBITION [2]: 47%
22299 (eG*eT*eG*eT*eA*dT*dA*dG*dA*dT*dG*dA*dG*d[5mC]*dA*eG*eG*eT*e[5mC]*eA; antisense) [compound 22299]	46	–
22300 (eT*e[5mC]*eT*eG*eT*dG*dA*d[5mC]*dA*dT*dT*dA*dT*d[5mC]*dT*eT*eG*eA*eG*eA; antisense) [compound 22300]	39	–
22301 (eA*eA*eG*eA*eT*dA*dA*dA*dA*dG*d[5mC]*d[5mC]*dG*d[5mC]*dG*eT*e[5mC]*eT*eT*eG; antisense) [compound 22301]	51	–
22302 (eA*eG*eA*eA*eA*dA*d[5mC]*d[5mC]*dA*dT*d[5mC]*dA*d[5mC]*dA*d[5mC]*eA*eT*eA*eT*eA; antisense) [compound 22302]	41	–
22303 (eA*eG*eA*eG*eT*dT*dG*d[5mC]*dG*dA*dG*dG*d[5mC]*d[5mC]*dG*e[5mC]*eT*eT*e[5mC]*eT; antisense) [compound 22303]	46	–
22304 (eT*e[5mC]*e[5mC]*e[5mC]*eT*d[5mC]*dT*d[5mC]*d[5mC]*dA*dT*dT*dG*dT*dG*eT*eT*eG*eG*eT; antisense) [compound 22304]	41	–
